Values joined by “and” are separate entries in the source; they are usually repeats but may differ in a detail not shown here. Identical values can stand only once. Like-named read-outs stand apart in the source and are kept apart here.
Assay: PK profiles after IV and PO administration to BALB/c mice
Type: in vivo
Conditions: for MRT last: read-out: MRT(0-t); for MRT inf: read-out: MRT(0-∞)
Description: The pharmacokinetics and oral bioavailability of Compound 42 were investigated in mice following single intravenous (IV) injection and oral administration (PO).

[1] = BALB/c, mouse, blood, po, 20 mg/kg, PO 20.0 mg/kg, individual animals
[2] = BALB/c, mouse, blood, po, 20 mg/kg, PO 20.0 mg/kg, mean n=3
[3] = IV 5.0 mg/kg, individual animals, 5 mg/kg
[4] = PO 20.0 mg/kg, individual animals, 20 mg/kg

- concentration at 6 h (BALB/c, mouse, blood, po, 20 mg/kg, PO 20 mg/kg, 6.00 h, individual animals 201-203, read-out: concentration in blood): 98.7 ng/mL
- concentration at 6 h (BALB/c, mouse, blood, po, 20 mg/kg, PO 20 mg/kg, 6.00 h, mean, read-out: concentration in blood, Mean PO): 111 ng/mL
- concentration at 24 h (BALB/c, mouse, blood, po, 20 mg/kg, PO 20 mg/kg, 24.00 h, individual animals 201-203, read-out: concentration in blood): 39 ng/mL
- concentration at 24 h (BALB/c, mouse, blood, po, 20 mg/kg, PO 20 mg/kg, 24.00 h, mean, read-out: concentration in blood, Mean PO): 42.4 ng/mL
- AUC(0-t) (BALB/c, mouse, blood, po, 20 mg/kg, PO 20.0 mg/kg, individual animals, read-out: AUC(0-t)): 2100 ng·h/mL
- AUC(0-inf) (BALB/c, mouse, blood, po, 20 mg/kg, PO 20.0 mg/kg, individual animals, read-out: AUC(0-∞)): 2750 ng·h/mL
- Cmax (BALB/c, mouse, blood, po, 20 mg/kg, PO 20.0 mg/kg, individual animals, read-out: Cmax): 211 ng/mL
- MRT last [1]: 7.66 h
- MRT inf [1]: 15.5 h
- half-life (BALB/c, mouse, blood, po, 20 mg/kg, PO 20.0 mg/kg, individual animals, read-out: T1/2 (converted)): 11.6 h
- AUC(0-t) (BALB/c, mouse, blood, po, 20 mg/kg, PO 20.0 mg/kg, mean n=3, read-out: AUC(0-t)): 2320 ng·h/mL
- AUC(0-inf) (BALB/c, mouse, blood, po, 20 mg/kg, PO 20.0 mg/kg, mean n=3, read-out: AUC(0-∞)): 3030 ng·h/mL
- Cmax (BALB/c, mouse, blood, po, 20 mg/kg, PO 20.0 mg/kg, mean n=3, read-out: Cmax): 225 ng/mL
- MRT last [2]: 7.64 h
- MRT inf [2]: 15.4 h
- half-life (BALB/c, mouse, blood, po, 20 mg/kg, PO 20.0 mg/kg, mean n=3, read-out: T1/2 (converted)): 11.6 h
- AUC(0-inf) (BALB/c, mouse, blood, po, 20 mg/kg, PO administration of 20 mpk, read-out: AUC∞): 3030 ng·h/mL
- Cmax (BALB/c, mouse, blood, po, 20 mg/kg, PO administration of 20 mpk, read-out: Cmax): 224 ng/mL
- half-life (BALB/c, mouse, blood, po, 20 mg/kg, PO administration of 20 mpk, read-out: half-life (converted)): 11.6 h
- Tmax (BALB/c, mouse, blood, IV 5.0 mg/kg, mean n=3): 0.083 h
- Tmax (BALB/c, mouse, blood, PO 20.0 mg/kg, individual animals): 1 h
- concentration in blood (IV 5 mg/kg, 0.083 h, individual animals 101-103, 5 mg/kg): 2724.650 ng/mI and 2922.650 ng/mI
- concentration in blood (IV 5 mg/kg, 0.25 h, individual animals 101-103, 5 mg/kg): 1228.390 ng/mI and 1506.240 ng/mI
- concentration in blood (IV 5 mg/kg, 0.50 h, individual animals 101-103, 5 mg/kg): 741.777 ng/mI and 916.427 ng/mI
- concentration in blood (IV 5 mg/kg, 1.00 h, individual animals 101-103, 5 mg/kg): 319.272 ng/mI and 350.728 ng/mI
- concentration in blood (IV 5 mg/kg, 4.00 h, individual animals 101-103, 5 mg/kg): 129.441 ng/mI and 94.754 ng/mI
- concentration in blood (IV 5 mg/kg, 24.00 h, individual animals 101-103, 5 mg/kg): 45.260 ng/mI and 30.044 ng/mI
- AUCINF_obs AUC(0-∞) [3]: 4161.11 ng·h/mL and 3533.38 ng·h/mL
- AUClast AUC(0-t) [3]: 3542.76 ng·h/mL and 3195.55 ng·h/mL
- C0 [3]: 4048.20 ng/mL and 4063.09 ng/mL
- Cl_obs Cl [3]: 20.0267 mL/min/kg and 23.5847 mL/min/kg
- Cmax [3]: 2724.65 ng/mL and 2922.65 ng/mL
- HL_Lambda_z T1/2 [3]: 9.47 h and 7.79 h
- MRTINF_obs MRT(0-∞) [3]: 9.83 h and 6.90 h
- MRTlast MRT(0-t) [3]: 4.97 h and 3.90 h
- Vss_obs Vss [3]: 11.80918 L/kg and 9.76009 L/kg
- Vz_obs Vz [3]: 16.41627 L/kg and 15.912 L/kg
- concentration in blood (PO 20 mg/kg, 0.25 h, individual animals 201-203, 20 mg/kg): 114.648 ng/mI and 79.841 ng/mI
- concentration in blood (PO 20 mg/kg, 0.50 h, individual animals 201-203, 20 mg/kg): 164.520 ng/mI and 165.563 ng/mI
- concentration in blood (PO 20 mg/kg, 1.00 h, individual animals 201-203, 20 mg/kg): 232.437 ng/mI and 230.000 ng/mI
- concentration in blood (PO 20 mg/kg, 3.00 h, individual animals 201-203, 20 mg/kg): 155.307 ng/mI and 179.295 ng/mI
- concentration in blood (PO 20 mg/kg, 6.00 h, individual animals 201-203, 20 mg/kg): 123.919 ng/mI and 111.651 ng/mI
- concentration in blood (PO 20 mg/kg, 24.00 h, individual animals 201-203, 20 mg/kg): 37.325 ng/mI and 50.885 ng/mI
- AUC(0-t) [4]: 2406.25 ng·h/mL and 2448.08 ng·h/mL
- AUC(0-∞) [4]: 2959.50 ng·h/mL and 3385.50 ng·h/mL
- Cmax [4]: 232.44 ng/mL and 230.00 ng/mL
- F [4]: 15.87% and 18.22% and 18.54%
- MRT(0-t) [4]: 7.22 h and 8.04 h
- MRT(0-∞) [4]: 13.12 h and 17.56 h
- T1/2 [4]: 10.27 h and 12.77 h
- F (PO 20.0 mg/kg, mean n=3): 17.55%
Compound: CC(=O)c1ccc(-c2cc(C(=O)c3ccc(C(F)(F)F)cc3)n3ccccc23)cc1 [Compound 42]

Source: patent publication US20230390319A1, “INTERFERON GENE STIMULATOR COMPOSITION COMPRISING INDOLIZINE DERIVATIVE AS ACTIVE INGREDIENT” (AJOU UNIVERSITY INDUSTRY-ACADEMIC COOPERATION FOUNDATION, priority 2020, published 2023)
